Common to all, as to test: NCI-60 cell line screen, 48 h
Assay [1] has as its system CCRF-CEM leukemia.
Assay [2] relates to DU-145 prostate.
The test system of assay [3] is TK-10 renal.
Assay [4] has as its system SK-MEL-28 melanoma.
For assay [5], the system named is SW-620 colon.
The subject of assay [6] is COLO 205 colon.
The subject of assay [7] is MDA-MB-231 breast.
The test system of assay [8] is MALME-3M melanoma.
Assay [9] relates to SF-539 CNS.
The test system of assay [10] is NCI-H23 lung.

Where “and” joins values, the source holds several entries; their conditions need not be identical. Identical values can stand only once.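 Five concentrations, 48 hours, 96-well plates. GI50 is the concentration that inhibits growth by half. TGI denotes the concentration required for complete inhibition of growth.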

Take `Cc1c(-c2ccnc(N)n2)c2c(n1-c1ccccc1)C(=O)c1ccccc1C2=O`: the GI50 in assay [1] is greater than 100 µM; in assay [2] it was 21.1 µM; in assay [3], 20.2 µM; in assay [4], 41.8 µM; in [5], 38.9 µM; in assay [6], 44 µM. Besides, the GI50 in assay [7] was 19.7 µM. Further, the TGI in [1] was greater than 100 µM; in assay [2], 60.7 µM; in assay [3], 63.3 µM; in [4], greater than 100 µM; in assay [5], greater than 100 µM; in [6], greater than 100 µM. In [7], this molecule showed a TGI of 63.3 µM.

Regarding `Cn1ccnc1C(=O)/C=C/c1ccc(CC(=O)Nc2cc(F)c(F)c(F)c2)cc1`, the GI50 is 1.67 µM in assay [2]; 4.29 µM in assay [3]; 3.65 µM in [8]; 3.64 µM in [4]; 1.46 µM in assay [5]; 1.5 µM in [9]. For the same molecule, the GI50 is 2.53 µM in assay [6], 4.04 µM in [7] and 2.08 µM in assay [10]. The TGI in [2] was determined as 4.87 µM; in [3] it was 13.4 µM; in assay [8] it was 10.8 µM; in assay [4] it was 7.69 µM; in [5], 8.98 µM; in assay [9] it was 4.68 µM. Moreover, the TGI was 7.08 µM in assay [6], greater than 25 µM in assay [7] and 9.53 µM in assay [10].

As to `c1ccc2c(Nc3ccc4c(c3)OCO4)c3ccoc3nc2c1`, the GI50 in assay [1] was 15.2 µM; in [2], 14 µM; in assay [3], 19.4 µM; in assay [8], 15.9 µM; in [4], 19.2 µM; in assay [6], 20.2 µM. Moreover, in [10], the GI50 is 10.9 µM. Moreover, the TGI was greater than 100 µM in [1]; 31.2 µM in assay [2]; 42.9 µM in [3]; 34.3 µM in assay [8]; 58.6 µM in assay [4]; greater than 100 µM in [6]. Further, the TGI in assay [10] was 27.3 µM.

Turning to `Clc1cc(-c2csc(Cl)c2)cs1`, the TGI in assay [1], in [2], in assay [3], in assay [4], in [5] and in assay [9] was greater than 100 µM each time. Also, the TGI in [6], in assay [7] and in [10] was greater than 100 µM in each case.

As for `COc1ccc(C(=O)C(CN(C)C)c2ccccc2)cc1` (centres undefined), the GI50 was 1.84 µM in [1]; 3.01 µM in [3]; 3.3 µM in assay [8]; 1.83 µM in assay [4]; 0.496 µM in assay [5]; 5.07 µM in [9]. The results for the GI50 in [6], in assay [7] and in [10] were 2.26 µM, 5.41 µM and 1.56 µM, respectively. Besides, the TGI in assay [1] came out at 11.9 µM; in [3], 7.85 µM; in assay [8], 13.6 µM; in assay [4] it was 3.38 µM; in [5] it was 1.57 µM; in [9] it was 16.6 µM. Besides, the TGI in assay [6] is 4.21 µM; in [7], 17.4 µM; in assay [10], 3.32 µM.

`N#CCCCCCn1c2ccccc2c2c3c(c4c5ccccc5[nH]c4c21)C(=O)N(O)C3=O`: the GI50 in assay [2] was 1.06 µM; in assay [3] it was 2.2 µM; in assay [8], 1.96 µM; in assay [4], 1.8 µM; in assay [5] it was 1.01 µM; in assay [9] it was 0.632 µM. In addition, the GI50 in assay [6] was 1.85 µM; in assay [7], 1.78 µM; in assay [10], 1.55 µM. The TGI in assay [2] was 12.2 µM; in assay [3] it was 7.88 µM; in assay [8], 5.01 µM; in assay [4], 6.61 µM; in assay [5] it was 34.8 µM; in assay [9], 2.05 µM. Moreover, the results for the TGI in assay [6], in assay [7] and in [10] were 4.36 µM, 5.32 µM and 5.54 µM, respectively.

Take `CCN(CC)Cc1cc(Nc2c3ccc(Cl)cc3nc3c(C)cccc23)ccc1O`: the GI50 in [2] is 2.3 µM; in assay [3], 2.69 µM; in assay [8] it was 1.65 µM; in [4] it was 1.78 µM; in assay [5], 1.06 µM; in assay [9], 1.73 µM. Moreover, the GI50 in assay [6] was 1.23 µM; in assay [7] it was 1.83 µM; in [10], 1.65 µM. In addition, the TGI came out at 6.99 µM in assay [2]; 5.59 µM in [3]; 3.13 µM in [8]; 3.22 µM in assay [4]; 2.53 µM in [5]; 3.12 µM in assay [9]. Also, the TGI in [6] turned out to be 2.6 µM; in assay [7], 3.81 µM; in [10] it was 3.22 µM.

Regarding `N#CSc1cc(-c2nc3ccccc3o2)ccc1N`, the GI50 in [1] was 10.6 µM; in [2], greater than 67.7 µM; in assay [3], 19.2 µM; in assay [4], 29.6 µM; in [5], 25.7 µM; in assay [9], 22.4 µM. Besides, the GI50 in assay [6] is 40.5 µM; in assay [7], greater than 100 µM; in assay [10], 19.5 µM. Moreover, the TGI in assay [1] is 30.2 µM; in assay [2] it was greater than 100 µM; in assay [3] it was 52.3 µM; in assay [4], greater than 100 µM; in [5], greater than 86.2 µM; in assay [9] it was 45.3 µM. Moreover, the values for the TGI in [6], in assay [7] and in assay [10] were greater than 100 µM, greater than 100 µM and greater than 86.1 µM, respectively.

Consider `CN(C)CC1CCCCCCCCCCC1=O` (centres undefined), for which the GI50 in assay [1] was > 10 µM and 99.4 µM; in assay [2] it was greater than 100 µM; in assay [3], greater than 100 µM; in assay [8] it was greater than 100 µM; in assay [5] it was greater than 100 µM; in assay [6] it was greater than 100 µM. Also, the GI50 in assay [10] is greater than 100 µM. The TGI in assay [1], in [2], in assay [3], in assay [8], in assay [4] and in [5] was greater than 100 µM each time. Also, the figures for the TGI in assay [6], in assay [7] and in [10] were greater than 100 µM, greater than 10 µM and greater than 100 µM, respectively.

As to `CCc1cc(Nc2nccc(-c3c(-c4ccc(OC)c(C(=O)Nc5c(F)cccc5F)c4)nc4ccccn34)n2)c(OC)cc1N1CCC(N2CCN(S(C)(=O)=O)CC2)CC1`, the GI50 was greater than 100 µM in assay [2]; greater than 90.4 µM in [3]; greater than 100 µM in assay [8]; greater than 100 µM in assay [4]; greater than 100 µM in assay [5]; greater than 100 µM in [9]. The GI50 is 44.3 µM in assay [7] and greater than 100 µM in assay [10]. Besides, the TGI in assay [2], in [3], in assay [8], in assay [4], in [5] and in assay [9] was greater than 100 µM throughout. Besides, the TGI in assay [6], in assay [7] and in assay [10] was greater than 100 µM each time.

With `O=C(c1nc2ccccc2[nH]1)C1C(c2cccc([N+](=O)[O-])c2)C2CC3CCCCC3N2[C@@]12C(=O)Nc1cc(Cl)ccc12` (some centres undefined), the GI50 in assay [1] is 3.11 µM; in [2], 1.55 µM; in [3], 2.12 µM; in [8], 1.42 µM; in assay [4], 1.81 µM; in assay [5], 1.78 µM. In addition, the GI50 in [9] is 1.69 µM; in assay [7] it was 1.49 µM; in assay [10], 2.37 µM. Also, the TGI in [1] was greater than 100 µM; in [2], 3.26 µM; in [3] it was 4.91 µM; in [8] it was 2.96 µM; in [4], 3.7 µM; in [5], 4.31 µM. Also, the values for the TGI in assay [9], in assay [7] and in assay [10] were 3.19 µM, 3.17 µM and 5.89 µM, respectively.

As for `C=C1C(=O)O[C@H]2[C@H]1CC/C(COC(=O)c1ccc(Br)cc1)=C\CC[C@@]1(C)O[C@@H]21`, the GI50 was 0.393 µM in assay [1]; 1.35 µM in [2]; 1.9 µM in assay [3]; 1.7 µM in assay [4]; 1.08 µM in [5]; 1.5 µM in assay [9]. For the same molecule, the GI50 was 1.79 µM in assay [6], 1.73 µM in assay [7] and 1.6 µM in assay [10]. For the same molecule, the TGI in assay [1] worked out at 7.76 µM; in assay [2], 2.65 µM; in [3], 3.33 µM; in assay [4], 3.39 µM; in assay [5], 2.87 µM; in assay [9] it was 2.88 µM. Further, the TGI in assay [6] is 3.51 µM; in [7], 3.51 µM; in assay [10] it was 3.41 µM.

Consider `NC(=S)c1cn(C2OC(CO)C(O)C2O)c2ncnc(N)c12` (centres undefined), for which the GI50 in assay [1] was 0.153 µM; in assay [2], 0.217 µM; in [3], 0.185 µM; in assay [8] it was 0.0279 µM; in assay [4], 0.112 µM; in [5], 0.105 µM. For the same molecule, the GI50 was 0.27 µM in [9], 0.152 µM in assay [7] and 0.139 µM in [10]. The TGI in assay [1] was 0.507 µM; in [2] it was 5.44 µM; in assay [3] it was 0.827 µM; in assay [8], 0.125 µM; in [4], 0.483 µM; in [5] it was 0.592 µM. The values for the TGI in assay [9], in assay [7] and in assay [10] were 1.55 µM, greater than 100 µM and 0.677 µM, respectively.

For the origin of these results see PubChem BioAssay (NCI).
